According to patent US11753408B2, “Compounds and method for blocking transmission of malarial parasite” (The United States of America, as represented by the …, priority 2016, dated 2023):
Where two headings read alike, the source gives them in different places.

What was measured:
[1] = test system: Stage III-V gametocytes (blood stage P. falciparum parasites); assay: In vitro drug activity on gametocytes (AlamarBlue viability assay); assay type: cell-based, Plasmodium falciparum; conditions: P. falciparum stage III-V gametocytes, 72 h incubation, AlamarBlue; read-out: Gametocyte EC50
Experimental: Cell culture. Asexual parasites of P. falciparum strain 3D7 were cultured as described previously [Trager W, et al., Journal of Parasitology 2005, 91: 484-486], Stage III-V gametocytes were selected and enriched with 3-day treatment with 50 mM N-acetylglucosamine (NAG) and the following Percoll density gradient centrifugation after gametocyte production [Tanaka T Q, et al., Molecular and Biochemical Parasitology, 2011, 111: 160-163], Gametocytes of HB3 and Dd2 strains were produced and then set up for assay in a similar process. HepG2 cells (ATCC, cat. no. 77400) were cultured in 175-cm^2 tissue culture flasks with 30 ml growth medium at 37° C. in a 5% CO2 humidified atmosphere. Growth medium was made with Dulbecco's Modified Eagle Medium with 10% fetal bovine serum (FBS). Growth medium was replaced every other day and cells were passed at 75% confluence.
Compound screening experiments were performed as previously described [Tanaka T Q et al., Molecular and Biochemical Parasitology, 2013, 3188: 20-25], Briefly, 2.5 μl/well incomplete medium was dispensed into each well of 1,536-well plates using the Multidrop Combi followed by 23 nl compound transferring using the NX-TR Pintool (WAKO Scientific Solutions, San Diego, Calif.). 2.5 μl/well of gametocytes was dispensed with a seeding density of 20,000 cells/well using the Multidrop Combi. The assay plates were incubated for 72 h at 37° C. with 5% CO2. After addition of 5 μl/well of 2× AlamarBlue dye (Life Technologies, cat. no. DALI 100), the plates were incubated for 24 h at 37° C. with 5% CO2 and were read in a fluorescence detection mode (Ex=525 nm, Em=598 nm) on a ViewLux plate reader (PerkinElmer).
Stage III-V gametocytes (blood stage P. falciparum parasites) were enriched with treatment with 50 mM N-acetylglucosamine (NAG) and Percoll density gradient centrifugation as described previously^1. Briefly, 2.5 μl/well incomplete medium was dispensed into each well of 1,536-well plates using the Multidrop Combi followed by 23 nl compound transfer using the NX-TR Pintool (WAKO Scientific Solutions, San Diego, Calif.). Then, 2.5 μl/well of gametocytes was dispensed with a seeding density of 20,000 cells/well using the Multidrop Combi. The assay plates were incubated for 72 h at 37° C. with 5% CO2. After addition of 5 μl/well of 2× AlamarBlue dye (Life Technologies, cat. no. DALI 100), the plates were incubated for 24 h at 37° C. with 5% CO2 and then were read in a fluorescence detection mode (Ex=525 nm, Em=598 nm) on a ViewLux plate reader (PerkinElmer).

[2] = test system: Asexual parasites of P. falciparum strain 3D7; assay: In vitro drug activity on asexual parasites (SYBR Green assay); assay type: cell-based, Plasmodium falciparum
In short: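 3D7 parasites at 0.5% parasitemia and 2% hematocrit were exposed to drugs (DMSO ≤0.5%) for 72 h under standard culture conditions, in duplicate. After freeze-thaw lysis, SYBR Green I lysis buffer was added for 30 min at room temperature, and fluorescence was read at 490/520 nm.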

mTOR = mTOR (Homo sapiens, UniProt P42345); assay: mTOR activity (no method described); assay type: biochemical
[3] = Microsomal stability (rat); assay type: in vitro ADME; conditions: rat microsomes
Solubility at pH 7.4 = assay type: physicochemical
PAMPA permeability = assay type: in vitro ADME
[4] = P. falciparum 3D7 asexual parasites, 72 h, SYBR Green

EC50 [2, 4] [nM]	EC50 [2] [nM]	mTOR (mTOR) [µM]	Microsomal Stability (rat) T1/2 [3] [min]	Sol @ pH 7.4 (Solubility at pH 7.4) [ug/mL]	PAMPA Permeability (PAMPA permeability) [×10⁻⁶ cm/s]	SMILES	EC50 [1] [nM]
18.6						O=C1Cc2cc(-n3c(=O)ccc4cnc5ccc(-c6ccc(Cl)cc6)cc5c43)ccc2N1 [Compound 346]	48.4
147						CN(C)Cc1ccc(-c2ccc3ncc4ccc(=O)n(-c5ccc(S(C)(=O)=O)c(Cl)c5)c4c3c2)cc1 [Compound 63]	342
113						COc1ccc(C#N)cc1-n1c(=O)ccc2cnc3ccc(-c4ccc(CN(C)C)cc4)cc3c21 [Compound 14]	425
27.9						N#Cc1cccc(-n2c(=O)ccc3cnc4ccc(-c5ccc(Cl)cc5)cc4c32)c1 [Compound 1]	88.8
730						N#Cc1cc(-n2c(=O)ccc3cnc4ccc(-c5ccc(F)cc5)cc4c32)ccc1N1CCNCC1 [Compound 15]	521
23.7						N#Cc1cc(-n2c(=O)ccc3cnc4ccc(-c5ccc(Cl)cc5)cc4c32)ccc1N1CCNCC1 [Compound 16]	69.4
150						Nc1ccc(-c2ccc3ncc4ccc(=O)n(-c5ccc(S(=O)(=O)NC6CC6)cc5)c4c3c2)cn1 [Compound 82]	167
	82.5	3.631	3.8	19.9	354	Cc1cc(C(=O)NCCN2CCN(C)CC2)ccc1-n1c(=O)ccc2cnc3ccc(-c4ccc(Cl)cc4)cc3c21 [Compound 277]	
	81.8	1.903	16.7	<1	846	Cc1cc(C(=O)NC2CC2)ccc1-n1c(=O)ccc2cnc3ccc(-c4ccc(Cl)cc4)nc3c21 [Compound 247]	
	60.8	2.719	>30	>84	1.5	COc1cc(C(=O)NCCN2CCNCC2)ccc1-n1c(=O)ccc2cnc3ccc(-c4ccc(Cl)cc4)cc3c21 [Compound 257]	
	3820	10.41	>30	>61	11.7	N#Cc1ccc2ncc3ccc(=O)n(-c4ccc(C(=O)N5CCOCC5)cc4)c3c2c1 [Compound 245]	
55.8						COc1ccc(C#N)cc1-n1c(=O)ccc2cnc3ccc(-c4ccc(Cl)cc4)cc3c21 [Compound 12]	126
	1640	7.873	>30	>76	216	CN1Cc2ccc(-c3ccc4ncc5ccc(=O)n(-c6ccc(C(=O)N7CCOCC7)cc6)c5c4c3)cc2C1 [Compound 244]	
	101	1.4	>30	7.1	35.8	NC1(c2ccc(-c3ccc4ncc5ccc(=O)n(-c6ccc(C(=O)NC7CC7)cc6)c5c4c3)cc2)CC1 [Compound 97]	
	150	11.02	1.6	0	936	Cc1cc(C(=O)NCCCN2CCOCC2)ccc1-n1c(=O)ccc2cnc3ccc(-c4ccc(F)cc4)cc3c21 [Compound 297]	
	52.1	5.227	21.9	11.8	626	COc1cc(C(=O)NC2CC2)ccc1-n1c(=O)ccc2cnc3ccc(-c4ccc(F)c(O)c4)cc3c21 [Compound 272]	

EC50 [2, 4] [nM]	EC50 [2] [nM]	mTOR (mTOR) [µM]	Microsomal Stability (rat) T1/2 [3] [min]	Sol @ pH 7.4 (Solubility at pH 7.4) [ug/mL]	PAMPA Permeability (PAMPA permeability) [×10⁻⁶ cm/s]	SMILES	EC50 [1] [nM]
	109	16.51	5.6	1.4	1440	COc1cc(C(=O)N2CCOCC2)ccc1-n1c(=O)ccc2cnc3ccc(-c4ccc(Cl)cc4)cc3c21 [Compound 199]	
	42.2	0.8321	6.7	<1	1.1	CCNC(=O)c1ccc(-n2c(=O)ccc3cnc4ccc(-c5ccc(Cl)cc5)cc4c32)cc1 [Compound 216]	
	489	0.373	>30	>74	< 1	O=C(c1ccc(-n2c(=O)ccc3cnc4ccc(-c5ccc6c(c5)CNC6)cc4c32)cc1)N1CCOCC1 [Compound 242]	
	258	8.463	>30	>80	353	COc1cc(C(=O)NCCN2CCC2)ccc1-n1c(=O)ccc2cnc3ccc(-c4ccc(Cl)cc4)cc3c21 [Compound 253]	
	145	0.1688	>30	58.1	< 1	CC(N)c1ccc(-c2ccc3ncc4ccc(=O)n(-c5ccc(C(=O)N6CCOCC6)cc5)c4c3c2)cc1 (centres unmarked) [Compound 207]	
	40.6	4.9	21.4	63.8	1010	Cc1cc(C(=O)NCCN(C)C)ccc1-n1c(=O)ccc2cnc3ccc(-c4ccc(Cl)cc4)cc3c21 [Compound 274]	
	1260	0.6459	>30	>72	1.5	CC(C)(N)c1ccc(-c2ccc3ncc4ccc(=O)n(-c5ccc(C(=O)NC6CC6)cc5)c4c3c2)cc1 [Compound 246]	
	53.4	1.065	>30	9.2	7.6	O=C(NC1CNC1)c1ccc(-n2c(=O)ccc3cnc4ccc(-c5ccc(Cl)cc5)cc4c32)cc1 [Compound 232]	
	24400	100	3.4	<1	564	O=C(c1ccc(-n2c(=O)ccc3c(F)nc4ccc(-c5ccc(Cl)cc5)cc4c32)cc1)N1CCOCC1 [Compound 235]	
	14.3	0.2571	>30	<1	< 1	O=C(NC1CC1)c1ccc(-n2c(=O)ccc3cnc4ccc(-c5ccc(Cl)c(O)c5)cc4c32)cc1 [Compound 204]	
	1200	50	>30	>78	< 1	O=C(c1ccc(-n2c(=O)ccc3c[n+]([O-])c4ccc(-c5ccc(Cl)cc5)cc4c32)cc1)N(CCO)CCO [Compound 236]	
	64.4	4.806	3	63.1	311	CCN(CC)CCCNC(=O)c1ccc(-n2c(=O)ccc3cnc4ccc(-c5ccc(Cl)cc5)cc4c32)c(C)c1 [Compound 290]	
	24.9	4.188	>30	13.6	1.9	O=C(NC1CN(CCO)C1)c1ccc(-n2c(=O)ccc3cnc4ccc(-c5ccc(Cl)cc5)cc4c32)cc1 [Compound 94]	
	501	8.776	3.5	<1	664	COc1cc(C(=O)NCCN2CCCCC2)ccc1-n1c(=O)ccc2cnc3ccc(-c4ccc(Cl)cc4)cc3c21 [Compound 256]	
	56.8	0.2148	>30	<1	439	Nc1cc(-c2ccc3ncc4ccc(=O)n(-c5ccc(C(=O)NC6CC6)cc5)c4c3c2)ccc1Cl [Compound 238]	
